Key:
[1] = tested on: KRas G12D-mediated phosphorylation of ERK; assay: Inhibition of KRas G12D-mediated phosphorylation of ERK in AGS cells; assay type: cell-based; conditions: Homo sapiens; AGS cells expressing G12D, 3 hours, phospho-ERK normalized to GAPDH
Summary of the method: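 Fixed, methanol-permeabilized; phospho-ERK (Thr202/Tyr204) by in-cell immunofluorescence normalized to GAPDH. Percent of DMSO control, IC50 by 4-parameter fit.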

[2] = target: T1, KRas G12D (Homo sapiens (Human), UniProt P01116, G12D); assay: KRas G12D Binding Assay (TR-FRET displacement); conditions: TR-FRET displacement of Cy5 labelled tracer, GDP-loaded KRAS G12D, 60 minute incubation at 22° C.
Description: After a 60 minute incubation at 22° C., the reaction was measured using a PerkinElmer EnVision multimode plate reader via TR-FRET dual wavelength detection, and the percent of control (POC) calculated using a ratiometric emission factor. […] The POC values were fit to a 4-parameter logistic curve and the IC50 value was determined as the concentration where the curve crosses 50 POC.
Target sequence in this assay (P01116 other isoform, or with tags, fused parts or gaps G12D): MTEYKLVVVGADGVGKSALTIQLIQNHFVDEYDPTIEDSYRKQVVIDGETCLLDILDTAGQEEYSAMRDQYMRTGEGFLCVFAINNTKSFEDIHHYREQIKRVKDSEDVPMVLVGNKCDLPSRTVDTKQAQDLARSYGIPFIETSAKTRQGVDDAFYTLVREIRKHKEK

[3] = target: T1, KRas G12D; assay: KRas G12D Surface Plasmon Resonance (SPR) Binding Assay; conditions: Biacore T200, immobilized biotinylated KRAS protein, 1:1 binding model
Description: Briefly, 1 L of 1.05× HBS-Mg buffer (262.5 mM Bioultra Hepes, pH 7.5, 157.5 mM NaCl, 105 mM MgCl2, 0.525 mM TCEP, 0.0305% Brij-35) was prepared and filter sterilized using a 0.22 μm bottle top filter. Approximately 50 mL of 1.05× HBS-Mg buffer was removed and saved for future dilutions. A 50 mL aliquot of DMSO (Sigma Aldrich DMSO Lot. #SHBK2079) was added and continued to stir for 10 minutes, creating the final 1.0× HBS-Mg buffer (250 mM Bioultra Hepes pH 7.5, 150 mM NaCl, 100 mM MgCl2, 0.5mM TCEP, 0.03% Brij-35).
Biacore T200 instrument was primed using 1.0× HBS-Mg buffer before docking a GE Streptavidin (SA) chip and then primed two additional times prior to beginning the immobilization step. All immobilized protein mixtures were created using 3-5mg/mL Biotinylated Avidin-tagged KRAS protein using the following immobilization settings: SA chip type, 1 flow cells per cycle, 720 second contact time, and 5 ul/min flow rate. Normalization of the detector was also performed during the immobilization step using the GE Biallormalize solution.
All compounds were diluted to 10 mM in 100% DMSO prior to being diluted 20× in 1.05× buffer. […] Data evaluation was performed using the Biacore T200 Evaluation software and data fit to 1:1 binding model.
Target sequence in this assay (P01116-2 other isoform, or with tags, fused parts or gaps G12D): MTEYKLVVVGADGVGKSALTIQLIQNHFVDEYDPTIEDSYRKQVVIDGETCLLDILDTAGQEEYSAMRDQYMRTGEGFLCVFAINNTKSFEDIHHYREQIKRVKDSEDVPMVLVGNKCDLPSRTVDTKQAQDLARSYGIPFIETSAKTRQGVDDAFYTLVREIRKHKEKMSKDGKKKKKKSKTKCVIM

Row | Compound | IC50 [1] [µM] | IC50 [2] [µM] | Kd [3] [µM]
1 | CC(C)(C)c1ccccc1-c1ncc2c(N3CC4CCC(C3)N4)nc(OC[C@@]34CCCN3C[C@H](F)C4)nc2c1F (racemic) [Example 362, 4-((1R,5S)-3,8-diazabicyclo[3.2.1]octan-3-yl)-7-(2-(tert-butyl)phenyl)-8-fluoro-2-((2-fluorotetrahydro-1H-pyrrolizin-7a(5H)-yl)methoxy)pyrido[4,3-d]pyrimidine (racemic, trans)] | 10.5 | 0.106 | 
2 | CC(C)c1cccc2cc(O)cc(-c3ncc4c(N5CC6CCC(C5)N6)nc(OC[C@@]56CCCN5C[C@H](F)C6)nc4c3F)c12 (racemic) [Example 364, 4-(4-((1R,5S)-3,8-diazabicyclo[3.2.1]octan-3-yl)-8-fluoro-2-((2-fluorotetrahydro-1H-pyrrolizin-7a(5H)-yl)methoxy)pyrido[4,3-d]pyrimidin-7-yl)-5-isopropylnaphthalen-2-ol (racemic, trans)] | 0.322 | 0.0023 | 
3 | Oc1cc(-c2ncc3c(N4CC5CCC(C4)N5)nc(OC[C@@]45CCCN4C[C@H](F)C5)nc3c2F)c2c(F)cccc2c1 (racemic) [Example 366, 4-(4-((1R,5S)-3,8-diazabicyclo[3.2.1]octan-3-yl)-8-fluoro-2-((2-fluorotetrahydro-1H-pyrrolizin-7a(5H)-yl)methoxy)pyrido[4,3-d]pyrimidin-7-yl)-5-fluoronaphthalen-2-ol (racemic, trans)] | 0.007 | 0.0005 | 
4 | Fc1c(-c2ccccc2C2CCC2)ncc2c(N3CC4CCC(C3)N4)nc(OCC34CCCN3C[C@H](F)C4)nc12 (mixture of isomers) [Example 371, 4-((1R,5S)-3,8-diazabicyclo[3.2.1]octan-3-yl)-7-(2-cyclobutylphenyl)-8-fluoro-2-((2-fluorotetrahydro-1H-pyrrolizin-7a(5H)-yl)methoxy)pyrido[4,3-d]pyrimidine (racemic, trans)] |  | 0.394 | 
5 | CSc1cccc2cc(O)cc(-c3ncc4c(N5CC6CCC(C5)N6)nc(OCC56CCCN5C[C@H](F)C6)nc4c3F)c12 (mixture of isomers) [Example 372, 4-(4-((1R,5S)-3,8-diazabicyclo[3.2.1]octan-3-yl)-8-fluoro-2-((2-fluorotetrahydro-1H-pyrrolizin-7a(5H)-yl)methoxy)pyrido[4,3-d]pyrimidin-7-yl)-5-(methylthio)naphthalen-2-ol (racemic, trans)] | 0.0105 | 0.0007 | 
6 | Cc1cc2[nH]ncc2c(-c2ncc3c(N4CC5CCC(C4)N5)nc(OC[C@@]45CCCN4C[C@H](F)C5)nc3c2F)c1Cl (racemic) [Example 376, 4-((1R,5S)-3,8-diazabicyclo[3.2.1]octan-3-yl)-7-(5-chloro-6-methyl-1H-indazol-4-yl)-8-fluoro-2-((2-fluorotetrahydro-1H-pyrrolizin-7a(5H)-yl)methoxy)pyrido[4,3-d]pyrimidine (racemic, trans)] |  | 0.0026 | 
7 | Nc1ccc(Cl)c(F)c1-c1ncc2c(N3CC4CCC(C3)N4)nc(OC[C@@]34CCCN3C[C@H](F)C4)nc2c1F (racemic) [Example 380, 2-(4-((1R,5S)-3,8-diazabicyclo[3.2.1]octan-3-yl)-8-fluoro-2-((2-fluorotetrahydro-1H-pyrrolizin-7a(5H)-yl)methoxy)pyrido[4,3-d]pyrimidin-7-yl)-4-chloro-3-fluoroaniline bis(2,2,2-trifluoroacetate) (racemic, trans)] | > 16.7 | 0.0657 | 
8 | Fc1c(-c2ccccc2CC(F)(F)F)ncc2c(N3CC4CCC(C3)N4)nc(OC[C@@]34CCCN3C[C@H](F)C4)nc12 (racemic) [Example 383, 4-((1R,5S)-3,8-diazabicyclo[3.2.1]octan-3-yl)-8-fluoro-2-((2-fluorotetrahydro-1H-pyrrolizin-7a(5H)-yl)methoxy)-7-(2-(2,2,2-trifluoroethyl)phenyl)pyrido[4,3-d]pyrimidine (racemic, trans)] |  | 0.586 | 
9 | COc1cc(-c2ncc3c(N4CC5CCC(C4)N5)nc(OC[C@@]45CCCN4C[C@H](F)C5)nc3c2F)c2ccccc2c1 (racemic) [Example 385, 4-((1R,5S)-3,8-diazabicyclo[3.2.1]octan-3-yl)-8-fluoro-2-((2-fluorotetrahydro-1H-pyrrolizin-7a(5H)-yl)methoxy)-7-(3-methoxynaphthalen-1-yl)pyrido[4,3-d]pyrimidine (racemic, trans)] | > 16.7 | 3.08 | 
10 | Oc1ccc(SC(F)(F)F)c(-c2ncc3c(N4CC5CCC(C4)N5)nc(OC[C@@]45CCCN4C[C@H](F)C5)nc3c2F)c1 (racemic) [Example 386, 3-(4-((1R,5S)-3,8-diazabicyclo[3.2.1]octan-3-yl)-8-fluoro-2-((2-fluorotetrahydro-1H-pyrrolizin-7a(5H)-yl)methoxy)pyrido[4,3-d]pyrimidin-7-yl)-4-((trifluoromethyl)thio)phenol (racemic, trans)] | 0.32 | 0.002 | 
11 | Oc1cc(-c2ncc3c(N4C[C@H]5CC[C@@H](C4)N5)nc(OCCc4ncccn4)nc3c2F)c2ccccc2c1 [Example 7, 4-(4-((1R,5S)-3,8-diazabicyclo[3.2.1]octan-3-yl)-8-fluoro-2-(2-(pyrimidin-2-yl)ethoxy)pyrido[4,3-d]pyrimidin-7-yl)naphthalen-2-ol] |  | 1.87 | 0.464
12 | OC[C@@H](O)COc1nc(N2C[C@H]3CC[C@@H](C2)N3)c2cnc(-c3cccc4cccc(Cl)c34)c(F)c2n1 [Example 56, (R)-3-((4-((1R,5S)-3,8-diazabicyclo[3.2.1]octan-3-yl)-7-(8-chloronaphthalen-1-yl)-8-fluoropyrido[4,3-d]pyrimidin-2-yl)oxy)propane-1,2-diol] |  | 5.92 | 5.17
13 | OCC(O)CCOc1nc(N2C[C@H]3CC[C@@H](C2)N3)c2cnc(-c3cccc4cccc(Cl)c34)c(F)c2n1 (stereo partly drawn) [Example 57, 4-((4-((1R,5S)-3,8-diazabicyclo[3.2.1]octan-3-yl)-7-(8-chloronaphthalen-1-yl)-8-fluoropyrido[4,3-d]pyrimidin-2-yl)oxy)butane-1,2-diol] |  | 7.29 | > 1000
14 | OCC(COc1nc(N2C[C@H]3CC[C@@H](C2)N3)c2cnc(-c3cccc4cccc(Cl)c34)c(F)c2n1)c1cccnc1 (stereo partly drawn) [Example 59, 3-((4-((1R,5S)-3,8-diazabicyclo[3.2.1]octan-3-yl)-7-(8-chloronaphthalen-1-yl)-8-fluoropyrido[4,3-d]pyrimidin-2-yl)oxy)-2-(pyridin-3-yl)propan-1-ol] |  | 0.946 | 1.12
15 | OCC1CCC2(COc3nc(N4C[C@H]5CC[C@@H](C4)N5)c4cnc(-c5cccc6cccc(Cl)c56)c(F)c4n3)CCCN12 (stereo partly drawn) [Example 135, (7a-(((4-((1R,5S)-3,8-diazabicyclo[3.2.1]octan-3-yl)-7-(8-chloronaphthalen-1-yl)-8-fluoropyrido[4,3-d]pyrimidin-2-yl)oxy)methyl)hexahydro-1H-pyrrolizin-3-yl)methanol] | 4.82 | 0.0021 | 
16 | CO[C@H]1C[C@@H](COc2nc(N3C[C@H]4CC[C@@H](C3)N4)c3cnc(-c4cccc5cccc(Cl)c45)c(F)c3n2)N(C)C1 [Example 149, 4-((1R,5S)-3,8-diazabicyclo[3.2.1]octan-3-yl)-7-(8-chloronaphthalen-1-yl)-8-fluoro-2-(((2S,4S)-4-methoxy-1-methylpyrrolidin-2-yl)methoxy)pyrido[4,3-d]pyrimidine] |  | 0.87 | 
17 | [2H]C#Cc1cccc2cccc(-c3ncc4c(N5C[C@H]6CC[C@@H](C5)N6)nc(OCC56CCCN5CCC6)nc4c3F)c12 [Example 278, 4-((1R,5S)-3,8-diazabicyclo[3.2.1]octan-3-yl)-7-(8-(ethynyl-d)naphthalen-1-yl)-8-fluoro-2-((tetrahydro-1H-pyrrolizin-7a(5H)-yl)methoxy)pyrido[4,3-d]pyrimidine] | 0.104 | 0.0007 | 
18 | FCC1CCC2(COc3nc(N4C[C@H]5CC[C@@H](C4)N5)c4cnc(-c5cccc6cccc(Cl)c56)c(F)c4n3)CCCN12 (stereo partly drawn) [Example 347, 4-((1R,5S)-3,8-diazabicyclo[3.2.1]octan-3-yl)-7-(8-chloronaphthalen-1-yl)-8-fluoro-2-((3-(fluoromethyl)tetrahydro-1H-pyrrolizin-7a(5H)-yl)methoxy)pyrido[4,3-d]pyrimidine] | 0.459 | 0.0021 | 
19 | C#Cc1c(F)ccc2cc(O)cc(-c3ncc4c(N5CC6CCC(C5)N6)nc(OC[C@]56CCCN5[C@@H](COC(=O)N(C)C)CC6)nc4c3F)c12 [Example 440, ((3R,7aR)-7a-(((4-((1R,5S)-3,8-diazabicyclo[3.2.1]octan-3-yl)-7-(8-ethynyl-7-fluoro-3-hydroxynaphthalen-1-yl)-8-fluoropyrido[4,3-d]pyrimidin-2-yl)oxy)methyl)hexahydro-1H-pyrrolizin-3-yl)methyl dimethyl carbamate] | 0.0084 | 0.0008 | 

— US11453683B1, “KRas G12D inhibitors” (Mirati Therapeutics, Inc., priority 2019, dated 2022)
